Measurements taken from the NIST ThermoML archive (doi:10.1016/j.jct.2012.08.021).
± gives the expanded uncertainty stated by the source.

Assay: xn = mol fraction of the nth substance listed
Settings: 101 kPa, Liquid, Vibrating tube method

CN(CCO)CCO [N-methyldiethanolamine] + C[S+](C)[O-]
Settings	mass density [kg/m3]
293.14 K, x1 = 0.5998	1053.8 ± 0.62
293.15 K, x1 = 0.1002	1089.57 ± 0.35
293.15 K, x1 = 0.2	1079.89 ± 0.4
293.15 K, x1 = 0.3001	1071.58 ± 0.45
293.15 K, x1 = 0.4001	1064.66 ± 0.5
293.15 K, x1 = 0.5002	1058.74 ± 0.56
293.15 K, x1 = 0.7002	1049.58 ± 0.69
293.15 K, x1 = 0.7998	1046.1 ± 0.76
293.15 K, x1 = 0.8998	1043.37 ± 0.84
293.15 K, x1 = 1	1040.6 ± 0.92
303.14 K, x1 = 0.4001	1056.1 ± 0.49
303.14 K, x1 = 0.5998	1045.65 ± 0.61
303.15 K, x1 = 0.1002	1080.03 ± 0.34
303.15 K, x1 = 0.2	1070.75 ± 0.39
303.15 K, x1 = 0.3001	1062.76 ± 0.44
303.15 K, x1 = 0.5002	1050.39 ± 0.55
303.15 K, x1 = 0.7002	1041.61 ± 0.68
303.15 K, x1 = 0.7998	1038.28 ± 0.75
303.15 K, x1 = 0.8998	1035.67 ± 0.82
303.15 K, x1 = 1	1033.02 ± 0.91
313.14 K, x1 = 0.4001	1047.54 ± 0.48
313.14 K, x1 = 0.5998	1037.49 ± 0.6
313.15 K, x1 = 0.1002	1070.49 ± 0.33
313.15 K, x1 = 0.2	1061.61 ± 0.38
313.15 K, x1 = 0.3001	1053.94 ± 0.43
313.15 K, x1 = 0.5002	1042.06 ± 0.54
313.15 K, x1 = 0.7002	1033.61 ± 0.66
313.15 K, x1 = 0.7998	1030.42 ± 0.73
313.15 K, x1 = 0.8998	1027.95 ± 0.81
313.15 K, x1 = 1	1025.4 ± 0.89
323.14 K, x1 = 0.4001	1038.99 ± 0.47
323.14 K, x1 = 0.5998	1029.33 ± 0.58
323.15 K, x1 = 0.1002	1060.95 ± 0.33
323.15 K, x1 = 0.2	1052.47 ± 0.37
323.15 K, x1 = 0.3001	1045.11 ± 0.42
323.15 K, x1 = 0.5002	1033.71 ± 0.53
323.15 K, x1 = 0.7002	1025.6 ± 0.65
323.15 K, x1 = 0.7998	1022.53 ± 0.72
323.15 K, x1 = 0.8998	1020.18 ± 0.8
323.15 K, x1 = 1	1017.74 ± 0.87
333.14 K, x1 = 0.4001	1030.43 ± 0.46
333.14 K, x1 = 0.5998	1021.15 ± 0.57
333.15 K, x1 = 0.1002	1051.41 ± 0.32
333.15 K, x1 = 0.2	1043.33 ± 0.36
333.15 K, x1 = 0.3001	1036.29 ± 0.41
333.15 K, x1 = 0.5002	1025.37 ± 0.51
333.15 K, x1 = 0.7002	1017.56 ± 0.64
333.15 K, x1 = 0.7998	1014.63 ± 0.71
333.15 K, x1 = 0.8998	1012.37 ± 0.78
333.15 K, x1 = 1	1010.03 ± 0.86
343.14 K, x1 = 0.4001	1021.86 ± 0.45
343.14 K, x1 = 0.5002	1017.01 ± 0.5
343.14 K, x1 = 0.5998	1012.95 ± 0.56
343.15 K, x1 = 0.1002	1041.86 ± 0.31
343.15 K, x1 = 0.2	1034.18 ± 0.35
343.15 K, x1 = 0.3001	1027.48 ± 0.4
343.15 K, x1 = 0.7002	1009.51 ± 0.62
343.15 K, x1 = 0.7998	1006.67 ± 0.69
343.15 K, x1 = 0.8998	1004.51 ± 0.77
343.15 K, x1 = 1	1002.25 ± 0.84
353.14 K, x1 = 0.1002	1032.29 ± 0.3
353.14 K, x1 = 0.4001	1013.27 ± 0.44
353.14 K, x1 = 0.5002	1008.63 ± 0.49
353.14 K, x1 = 0.5998	1004.72 ± 0.55
353.14 K, x1 = 0.8998	996.587 ± 0.75
353.14 K, x1 = 1	994.404 ± 0.83
353.15 K, x1 = 0.2	1025.01 ± 0.34
353.15 K, x1 = 0.7002	1001.4 ± 0.61
353.16 K, x1 = 0.3001	1018.62 ± 0.39
353.16 K, x1 = 0.7998	998.661 ± 0.68
363.14 K, x1 = 0.1002	1022.7 ± 0.29
363.14 K, x1 = 0.2	1015.82 ± 0.33
363.14 K, x1 = 0.3001	1009.77 ± 0.38
363.14 K, x1 = 0.5002	1000.22 ± 0.48
363.14 K, x1 = 0.7002	993.263 ± 0.61
363.14 K, x1 = 0.7998	990.621 ± 0.67
363.14 K, x1 = 0.8998	988.594 ± 0.75
363.15 K, x1 = 0.4001	1004.65 ± 0.43
363.15 K, x1 = 0.5998	996.455 ± 0.54
363.15 K, x1 = 1	986.471 ± 0.82

OCCNCCO [diethanolamine] + C[S+](C)[O-]
Settings	mass density [kg/m3]
293.14 K, x1 = 0.9002	1097.48 ± 0.31
293.15 K, x1 = 0.1002	1098.86 ± 0.31
293.15 K, x1 = 0.1999	1097.33 ± 0.31
293.15 K, x1 = 0.2998	1096.58 ± 0.31
293.15 K, x1 = 0.4001	1096.23 ± 0.31
293.15 K, x1 = 0.5001	1096.24 ± 0.31
293.15 K, x1 = 0.6	1096.29 ± 0.31
293.15 K, x1 = 0.7002	1096.88 ± 0.31
293.15 K, x1 = 0.8001	1097.24 ± 0.31
293.15 K, x1 = 1	1097.61 ± 0.31
303.14 K, x1 = 0.4001	1087.87 ± 0.3
303.14 K, x1 = 0.9002	1090.69 ± 0.3
303.15 K, x1 = 0.1002	1089.38 ± 0.3
303.15 K, x1 = 0.1999	1088.26 ± 0.3
303.15 K, x1 = 0.2998	1087.88 ± 0.3
303.15 K, x1 = 0.5001	1088.23 ± 0.3
303.15 K, x1 = 0.6	1088.59 ± 0.3
303.15 K, x1 = 0.7002	1089.43 ± 0.3
303.15 K, x1 = 0.8001	1090.11 ± 0.3
303.15 K, x1 = 1	1091.17 ± 0.3
313.14 K, x1 = 0.4001	1079.49 ± 0.29
313.15 K, x1 = 0.1002	1079.89 ± 0.29
313.15 K, x1 = 0.1999	1079.19 ± 0.29
313.15 K, x1 = 0.2998	1079.18 ± 0.29
313.15 K, x1 = 0.5001	1080.19 ± 0.29
313.15 K, x1 = 0.6	1080.87 ± 0.29
313.15 K, x1 = 0.7002	1081.97 ± 0.29
313.15 K, x1 = 0.8001	1082.9 ± 0.29
313.15 K, x1 = 0.9002	1083.77 ± 0.3
313.15 K, x1 = 1	1084.6 ± 0.3
323.14 K, x1 = 0.4001	1071.1 ± 0.29
323.15 K, x1 = 0.1002	1070.39 ± 0.29
323.15 K, x1 = 0.1999	1070.11 ± 0.28
323.15 K, x1 = 0.2998	1070.46 ± 0.29
323.15 K, x1 = 0.5001	1072.12 ± 0.29
323.15 K, x1 = 0.6	1073.1 ± 0.29
323.15 K, x1 = 0.7002	1074.48 ± 0.29
323.15 K, x1 = 0.9002	1076.8 ± 0.29
323.15 K, x1 = 1	1077.88 ± 0.29
323.16 K, x1 = 0.8001	1075.68 ± 0.29
333.14 K, x1 = 1	1071.11 ± 0.29
333.15 K, x1 = 0.1002	1060.89 ± 0.28
333.15 K, x1 = 0.1999	1061.01 ± 0.28
333.15 K, x1 = 0.2998	1061.72 ± 0.28
333.15 K, x1 = 0.4001	1062.67 ± 0.28
333.15 K, x1 = 0.5001	1064.01 ± 0.28
333.15 K, x1 = 0.6	1065.3 ± 0.28
333.15 K, x1 = 0.7002	1066.94 ± 0.28
333.15 K, x1 = 0.8001	1068.41 ± 0.28
333.15 K, x1 = 0.9002	1069.78 ± 0.28
343.14 K, x1 = 0.4001	1054.22 ± 0.27
343.14 K, x1 = 0.9002	1062.69 ± 0.28
343.14 K, x1 = 1	1064.25 ± 0.28
343.15 K, x1 = 0.1002	1051.36 ± 0.27
343.15 K, x1 = 0.1999	1051.9 ± 0.27
343.15 K, x1 = 0.2998	1052.96 ± 0.27
343.15 K, x1 = 0.5001	1055.86 ± 0.27
343.15 K, x1 = 0.6	1057.43 ± 0.28
343.15 K, x1 = 0.7002	1059.34 ± 0.28
343.15 K, x1 = 0.8001	1061.08 ± 0.28
353.14 K, x1 = 0.1999	1042.77 ± 0.26
353.14 K, x1 = 0.5001	1047.65 ± 0.27
353.14 K, x1 = 0.7002	1051.66 ± 0.27
353.14 K, x1 = 0.9002	1055.5 ± 0.27
353.14 K, x1 = 1	1057.31 ± 0.28
353.15 K, x1 = 0.1002	1041.8 ± 0.26
353.15 K, x1 = 0.2998	1044.16 ± 0.26
353.15 K, x1 = 0.4001	1045.72 ± 0.27
353.15 K, x1 = 0.6	1049.5 ± 0.27
353.15 K, x1 = 0.8001	1053.64 ± 0.27
363.14 K, x1 = 0.1002	1032.21 ± 0.26
363.14 K, x1 = 0.1999	1033.59 ± 0.26
363.14 K, x1 = 0.2998	1035.35 ± 0.26
363.14 K, x1 = 0.6	1041.5 ± 0.26
363.14 K, x1 = 0.7002	1043.89 ± 0.26
363.14 K, x1 = 0.8001	1046.12 ± 0.27
363.14 K, x1 = 0.9002	1048.21 ± 0.27
363.15 K, x1 = 0.4001	1037.18 ± 0.26
363.15 K, x1 = 0.5001	1039.38 ± 0.26
363.15 K, x1 = 1	1050.24 ± 0.27
